Source: the NIST ThermoML archive (doi:10.1021/je9005823)

Assays:
[1] = 298.15 K, 101 kPa, Liquid; for viscosity: Capillary tube (Ostwald / Ubbelohde) method
[2] = refractive index (Na D-line) (dimensionless); details: 298.15 K; 101.33 kPa; Liquid
[3] = xn = mol fraction of the nth substance listed; details: 298.15 K, 101 kPa, Liquid; for viscosity: Capillary tube (Ostwald / Ubbelohde) method
[4] = refractive index (Na D-line) (dimensionless); xn = mol fraction of the nth substance listed; details: 298.15 K, 101 kPa, Liquid

CCCCCC(C)O (stereo unspecified) [2-heptanol]
Details | mass density [kg/m3] | refractive index | viscosity [mPa·s]
[1] | 813.33 | – | 5.33
[2] | – | 1.4188 | –

CCCCCC(C)O (stereo unspecified) [2-heptanol] + CC(=O)c1ccccc1
Details | mass density, [3] [kg/m3] | refractive index, [4] | viscosity, [3] [mPa·s]
x2 = 0 | 813.33 | 1.4188 | 5.33
x2 = 0.0913 | 829.12 | 1.4489 | 4.282
x2 = 0.1631 | 841.87 | 1.4748 | 3.572
x2 = 0.2637 | 860.39 | 1.5079 | 2.763
x2 = 0.3425 | 875.43 | 1.5298 | 2.296
x2 = 0.4374 | 894.2 | 1.5535 | 1.908
x2 = 0.5387 | 915.07 | – | 1.662
x2 = 0.6446 | 937.92 | – | 1.55
x2 = 0.7571 | 963.35 | – | 1.548
x2 = 0.8733 | 991.14 | – | 1.606
x2 = 0.9542 | 1011.38 | 1.5486 | 1.651

CCCCC(C)O (stereo unspecified) [2-hexanol]
Details | mass density [kg/m3] | refractive index | viscosity [mPa·s]
[1] | 810.14 | – | 4.1
[2] | – | 1.4116 | –

CCCCC(C)O (stereo unspecified) [2-hexanol] + CC(=O)c1ccccc1
Details | mass density, [3] [kg/m3] | refractive index, [4] | viscosity, [3] [mPa·s]
x2 = 0 | 810.14 | 1.4116 | 4.1
x2 = 0.0902 | 827.84 | 1.4485 | 3.193
x2 = 0.1678 | 843.27 | 1.4782 | 2.658
x2 = 0.2536 | 860.63 | 1.5037 | 2.16
x2 = 0.34 | 878.39 | 1.5247 | 1.802
x2 = 0.4382 | 898.86 | 1.5425 | 1.506
x2 = 0.5395 | 920.38 | – | 1.344
x2 = 0.6451 | 943.23 | – | 1.273
x2 = 0.75 | 966.34 | – | 1.313
x2 = 0.8628 | 991.72 | 1.5505 | 1.399
x2 = 0.9511 | 1011.93 | 1.5394 | 1.556

CC(=O)c1ccccc1 [acetophenone]
Details | mass density [kg/m3] | refractive index | viscosity [mPa·s]
[1] | 1023.3 | – | 1.678
[2] | – | 1.5308 | –

CC(=O)c1ccccc1 [acetophenone] + CC(C)O
Details | mass density, [3] [kg/m3] | refractive index, [4] | viscosity, [3] [mPa·s]
x1 = 0.0892 | 813.69 | 1.3971 | 1.678
x1 = 0.1658 | 839.2 | 1.4181 | 1.503
x1 = 0.2517 | 865.44 | 1.4393 | 1.399
x1 = 0.3432 | 890.91 | 1.4601 | 1.354
x1 = 0.4297 | 913.04 | 1.4775 | 1.352
x1 = 0.5345 | 937.56 | 1.4953 | 1.367
x1 = 0.6466 | 961.31 | 1.5099 | 1.421
x1 = 0.7561 | 982.35 | 1.5195 | 1.484
x1 = 0.8635 | 1001.26 | 1.5255 | 1.556
x1 = 0.9568 | 1016.5 | 1.5276 | 1.626
x1 = 1 | 1023.3 | 1.5308 | 1.678
